Test system: C57BL/6N male mice fed high-fat diet
Experiment: Hepatic triglyceride levels in C57BL/6N male mice receiving a high-fat diet
Format: in vivo
Details: 3 weeks HFD, compound as diet admix 289 mg/kg HFD (~30 mg/kg/day) for final 2 weeks, 4-hour fast, group mean, HFD alone 1.6, NC 0.6
Description: An assay was performed to determine the effect of administering Compounds A and B to C57BL/6N male mice receiving a high-fat diet.
C57BL/6N male mice were obtained from Charles River Laboratories (Montreal, QC, Canada) at 11 weeks of age and singly housed on alpha-dri paper bedding on a normal 12 hour, 6 am-6 pm light-dark cycle. Upon arrival, 27 mice were fed D12492 high fat diets (HFD) containing 60% kcal fat while 9 mice were fed D12450K normal chow diet (NC) for 1 week with free access to water. Mice that had been fed D12492 were allocated into three equally distributed treatment arms of 9 mice each at 12 weeks of age based on 4-hour fasted blood glucose and body weight. […]
Following a 4-hour fast, mice were euthanized and a random lobe of liver was flash frozen in liquid nitrogen for subsequent hepatic lipid analysis. […] A 10 μL aliquot of the prepared sample was injected into the HPLC-ELSD system utilizing a Spherisorb® S5W Silica gel 5 μm, 100×4.6 mm ID HPLC column (Waters) running a 99:1 isooctane:tetrahydrofuran (mobile phase A), 2:1 acetone:CH2Cl2 (mobile phase B), 85:15 isopropanol:7.5 mM acetic acid/7.5 mM ethanolamine (mobile phase C) gradient before being detected using evaporative light scattering detection (ELSD) on an SEDEX® 75 detector (Sedere, Inc., Lawrenceville, N.J.). […]

| Structure (SMILES) | Hepatic TG |
| --- | --- |
| CC(C)(CCCCCC(O)CCCCCC(C)(C)C(=O)O)C(=O)O [Compound B] | 1.1 % w/w |
| O=C(O)C1(CCCCCC(O)CCCCCC2(C(=O)O)CC2)CC1 [Compound A, 1,11-bis-(1-carboxy-cyclopropyl)-undecan-6-ol] | 0.6 % w/w |
